target: Dual specificity tyrosine-phosphorylation-regulated kinase 1A (Homo sapiens, UniProt Q13627); test: DYRK1A Inhibition Assay
Experimental: 1. Add 5 μL enzyme & substrate mixture to each well in Column 2-23 and A24-H24 wells of the 384-well assay plate;2. Add 5 μL 0% Phosphorylation control to A1-H1 and I24-P24 wells of the assay plate;3. Add 5 μL 100% Phosphorylation control to I1-P1 wells of the assay plate;4. Spin the assay plate (1000 rpm, 1 minute @23° C.);5. Incubate enzyme with compounds for 15 minutes at 23° C.;6. Add 5 μL ATP solution to each well of the assay plate;7. Spin the plate (1000 rpm, 1 minute @23° C.);8. Incubate the assay plate for 90 minutes at 23° C.;9. Add 10 μL Development reagent A to each well of the assay plate;10. Centrifuge the plate at 1000 rpm about 15 seconds and seal a film over assay plate. Incubate the assay plate for 30 minutes at 23° C.11. Read assay plates on Envision (see Tables A, B, and C).Final Compound ConcentrationsAssay buffer: 50 mM Hepes pH7.5, 10 mM MgCl2, 1 mM EDTA, 0.01% Brij-35DYRK1A: 1 nMATP: 20 μMSer/Thr 18 peptide: 2 μMReaction time: 90 minutes.

Row | IC50 [nM] | Structure (SMILES)
1 | 550 | N#Cc1cccc(Oc2cncc3ccc(-c4cnc5ccccn45)cc23)c1 [US20250066318, Compound I.6]
2 | 55 | Cc1c(F)ncc2ccc(-c3cnn(C)c3)cc12 [US20250066318, Compound I.64]
3 | > 1000 | O=C(O)[C@H]1C[C@H](Nc2c(-c3cncs3)ccc3cnccc23)C1 [US20250066318, Compound I.67]
4 | 550 | O=C(O)[C@H]1C[C@@H](Nc2c(-c3cncs3)ccc3cnccc23)C1 [US20250066318, Compound I.68]
5 | 550 | O=C(O)[C@H]1C[C@@H](Oc2c(-c3cncs3)ccc3cnccc23)C1 [US20250066318, Compound I.69]
6 | 550 | O=C(O)[C@H]1C[C@H](Oc2c(-c3cncs3)ccc3cnccc23)C1 [US20250066318, Compound I.70]
7 | 55 | O=C(O)[C@H]1C[C@@H](Nc2ncc(-c3ccc4cnccc4c3)s2)C1 [US20250066318, Compound I.71]
8 | < 10 | O=C(O)C1CN(c2cn3ncc(-c4ccc5cnccc5c4)c3cn2)C1 [US20250066318, Compound I.73]
9 | 55 | O=C(O)C1CC(Nc2cc3cc(-c4cncs4)ccc3cn2)C1 (stereo not drawn) [US20250066318, Compound I.74]
10 | 55 | Cc1ncc2ccc(-c3cncs3)cc2c1OC1CNC1 [US20250066318, Compound I.75]
11 | 550 | Cc1ncc2ccc(-c3cncs3)cc2c1OC1CN(C)C1 [US20250066318, Compound I.76]
12 | 55 | Cc1ncc2ccc(-c3cnn(C)c3)cc2c1OC1CNC1 [US20250066318, Compound I.77]
13 | 55 | Cc1ncc2ccc(-c3cnn(C)c3)cc2c1OC1CN(C)C1 [US20250066318, Compound I.78]
14 | < 10 | Cc1ncc2ccc(-c3cncs3)cc2c1O[C@H]1C[C@@H](O)C1 [US20250066318, Compound I.79]
15 | < 10 | Cc1ncc2ccc(-c3cncs3)cc2c1O[C@H]1C[C@H](O)C1 [US20250066318, Compound I.80]
16 | < 10 | Cc1ncc2ccc(-c3cnn(C)c3)cc2c1O[C@H]1C[C@@H](O)C1 [US20250066318, Compound I.81]
17 | < 10 | Cc1ncc2ccc(-c3cnn(C)c3)cc2c1O[C@H]1C[C@H](O)C1 [US20250066318, Compound I.82]
18 | < 10 | Cn1cc(-c2ccc3cnc(NC(=O)OC4(C)CC4)cc3c2)cn1 [US20250066318, Compound I.83]
19 | < 10 | CS(=O)(=O)N1CCC(Oc2cncc3ccc(-c4cnn5cc(C(F)(F)F)ccc45)cc23)CC1 [US20250066318, Compound I.85]
20 | < 10 | CC(=O)N1CCC(Oc2cncc3ccc(-c4cnn5cc(C(F)(F)F)ccc45)cc23)CC1 [US20250066318, Compound I.86]
21 | 550 | O=C(O)C1CCN(Cc2cncc3ccc(-c4cnn5cc(C(F)(F)F)ccc45)cc23)CC1 [US20250066318, Compound I.88]

Row | IC50 [nM] | Structure (SMILES)
22 | 55 | CC(=O)N1CCN(Cc2cncc3ccc(-c4cnn5cc(C(F)(F)F)ccc45)cc23)CC1 [US20250066318, Compound I.89]
23 | < 10 | Cn1cc(C#Cc2ncc(-c3ccc4cnccc4c3)s2)ccc1=O [US20250066318, Compound I.92]
24 | < 10 | COc1cncc2ccc(-c3cnn4cc(-c5ccc(=O)n(C)c5)cnc34)cc12 [US20250066318, Compound I.93]
25 | 550 | N#Cc1cncc2ccc(-c3cnc(C#CC4CCOCC4)s3)cc12 [US20250066318, Compound I.94]
26 | < 10 | C(#CC1CCOCC1)c1ncc(-c2ccc3cncc(OC4CCNCC4)c3c2)s1 [US20250066318, Compound I.95]
27 | < 10 | CC(=O)N1CCC(Oc2cncc3ccc(-c4cnc(C#CC5CCOCC5)s4)cc23)CC1 [US20250066318, Compound I.96]
28 | < 10 | CN1CCC(Oc2cncc3ccc(-c4cnc(C#CC5CCOCC5)s4)cc23)CC1 [US20250066318, Compound I.97]
29 | 550 | C(#CC1CCOCC1)c1ncc(-c2ccc3cnc(OC4CCNCC4)cc3c2)s1 [US20250066318, Compound I.98]
30 | > 1000 | CC(=O)N1CCC(Oc2cc3cc(-c4cnc(C#CC5CCOCC5)s4)ccc3cn2)CC1 [US20250066318, Compound I.99]
31 | 550 | CN1CCC(Oc2cc3cc(-c4cnc(C#CC5CCOCC5)s4)ccc3cn2)CC1 [US20250066318, Compound I.100]
32 | > 1000 | CC(=O)N1CCN(Cc2cc3cc(-c4cnc(C#CC5CCOCC5)s4)ccc3cn2)CC1 [US20250066318, Compound I.101]
33 | > 1000 | CN(C)[C@H]1CC[C@H](Oc2cc3cc(-c4cnc(C#CC5CCOCC5)s4)ccc3cn2)CC1 [US20250066318, Compound I.102]
34 | > 1000 | CN(C)[C@H]1CC[C@@H](Oc2cc3cc(-c4cnc(C#CC5CCOCC5)s4)ccc3cn2)CC1 [US20250066318, Compound I.103]
35 | 55 | CC(C)CN1CCC(C#Cc2ncc(-c3ccc4cnc(Cl)cc4c3)s2)CC1 [US20250066318, Compound I.104]
36 | 55 | CC(C)CN1CCC(C(=O)Nc2ncc(-c3ccc4cnc(C5CC5)cc4c3)s2)CC1 [US20250066318, Compound I.105]
37 | 55 | Cn1cc(-c2ccc3cnc(C#CC4CCNCC4)cc3c2)cn1 [US20250066318, Compound I.106]
38 | 55 | CN1CCC(C#Cc2cc3cc(-c4cnn(C)c4)ccc3cn2)CC1 [US20250066318, Compound I.107]
39 | 55 | Cn1cc(-c2ccc3cnc(C#CC4CCOCC4)cc3c2)cn1 [US20250066318, Compound I.108]
40 | > 1000 | CN1CCc2c(c(-c3cnc4c(-c5ccc(C#N)cc5)cnn4c3)cn(C)c2=O)C1 [US20250066318, Compound II.43]
41 | 625 | Cn1c(C2CCNCC2)cn2ncc(-c3ccc(C#N)cc3)c2c1=O [US20250066318, Compound II.44]
42 | 625 | CN1CCC(c2cn3ncc(-c4ccc(C#N)cc4)c3c(=O)n2C)CC1 [US20250066318, Compound II.45]

Row | Structure (SMILES) | IC50 [nM]
43 | CN1CC=C(c2cn3ncc(-c4ccc(C#N)cc4)c3c(=O)[nH]2)CC1 [US20250066318, Compound II.46] | 175
